# According to US20120122969A1, “TREATMENT OF PERVASIVE DEVELOPMENTAL DISORDERS WITH TOCOTRIENOLS OR TOCOTRIENOL ENRICHED EXTRACTS” (AMPERE LIFE SCIENCES, INC., priority 2009, published 2012):
# System: Human Dermal Fibroblasts from Autistic Patients
# Experiment: Rescue of ASD fibroblasts stressed by addition of L-buthionine-(S,R)-sulfoximine (BSO), Calcein AM viability readout
# Assay type: cell-based
# Settings: 1 mM BSO, 48 hours, Calcein AM fluorescence, viability relative to non-BSO treated fibroblasts (100%); read-out: EC50 of protection against ASD (rescue of BSO-stressed ASD fibroblasts)
# Description: A screen was performed to identify compounds effective for the amelioration of ASD. Test samples, and solvent controls were tested for their ability to rescue ASD fibroblasts stressed by addition of L-buthionine-(S,R)-sulfoximine (BSO).
# MEM (a medium enriched in amino acids and vitamins, catalog no. Gibco 11965) and Fetal Calf Serum were obtained from Invitrogen. Basic fibroblast growth factor and epidermal growth factor were purchased from PeproTech. Penicillin-streptomycin-glutamine mix, L-buthionine (S,R)-sulfoximine, and insulin from bovine pancreas were purchased from Sigma. Calcein AM was purchased from Molecular Probes. Cell culture medium (ATP) was made by combining 75 ml Fetal Calf Serum, 100 U/ml penicillin, 100 μg/ml streptomycin, 2 mM glutamine, 10 ng/ml EGF, and 10 ng/ml bFGF; MEM EBS was added to make the volume up to 500 ml. A 10 mM BSO solution was prepared by dissolving 444 mg BSO in 200 ml of medium with subsequent filter-sterilization. […]
# 100 μl of PBS containing 1.2 μM Calcein AM were then added to each well. […] After that time the PBS was discarded, the plate gently tapped on a paper towel and fluorescence (excitation/emission wavelengths of 485 nm and 525 nm, respectively) was read on a Gemini fluorescence reader. […]
# The viability of non-BSO treated fibroblasts was set as 100%, and the viability of the BSO- and compound-treated cells was calculated as relative to this value.
substance,measurement,value
alpha-tocotrienol,EC50,< 50 nM
